The values below are quoted from earlier work in patent US9974867B2, “Cytotoxic benzodiazepine derivatives” (priority 2014, dated 2018).

Structures are written as SMILES.

The conditions of this data set: Phase I clinical evaluation; cited from earlier work.

For `C=C1C[C@H]2C=Nc3cc(OCCCOc4cc5c(cc4OC)C(=O)N4CC(=C)C[C@H]4C=N5)c(OC)cc3C(=O)N2C1` [SJG-136], the maximum tolerated dose is listed as 45 μg/m^2.
